Results from article doi:10.1101/2023.03.24.534094v2 (biorxiv, 2023).
Read-outs that look alike come from different tables or passages of the source.

How the values were obtained:
Test in all cases: biochemical
NEK1 = molecular target: T1, NEK1 (Homo sapiens, UniProt Q96PY6)
T1 sequence (Q96PY6 1-1258): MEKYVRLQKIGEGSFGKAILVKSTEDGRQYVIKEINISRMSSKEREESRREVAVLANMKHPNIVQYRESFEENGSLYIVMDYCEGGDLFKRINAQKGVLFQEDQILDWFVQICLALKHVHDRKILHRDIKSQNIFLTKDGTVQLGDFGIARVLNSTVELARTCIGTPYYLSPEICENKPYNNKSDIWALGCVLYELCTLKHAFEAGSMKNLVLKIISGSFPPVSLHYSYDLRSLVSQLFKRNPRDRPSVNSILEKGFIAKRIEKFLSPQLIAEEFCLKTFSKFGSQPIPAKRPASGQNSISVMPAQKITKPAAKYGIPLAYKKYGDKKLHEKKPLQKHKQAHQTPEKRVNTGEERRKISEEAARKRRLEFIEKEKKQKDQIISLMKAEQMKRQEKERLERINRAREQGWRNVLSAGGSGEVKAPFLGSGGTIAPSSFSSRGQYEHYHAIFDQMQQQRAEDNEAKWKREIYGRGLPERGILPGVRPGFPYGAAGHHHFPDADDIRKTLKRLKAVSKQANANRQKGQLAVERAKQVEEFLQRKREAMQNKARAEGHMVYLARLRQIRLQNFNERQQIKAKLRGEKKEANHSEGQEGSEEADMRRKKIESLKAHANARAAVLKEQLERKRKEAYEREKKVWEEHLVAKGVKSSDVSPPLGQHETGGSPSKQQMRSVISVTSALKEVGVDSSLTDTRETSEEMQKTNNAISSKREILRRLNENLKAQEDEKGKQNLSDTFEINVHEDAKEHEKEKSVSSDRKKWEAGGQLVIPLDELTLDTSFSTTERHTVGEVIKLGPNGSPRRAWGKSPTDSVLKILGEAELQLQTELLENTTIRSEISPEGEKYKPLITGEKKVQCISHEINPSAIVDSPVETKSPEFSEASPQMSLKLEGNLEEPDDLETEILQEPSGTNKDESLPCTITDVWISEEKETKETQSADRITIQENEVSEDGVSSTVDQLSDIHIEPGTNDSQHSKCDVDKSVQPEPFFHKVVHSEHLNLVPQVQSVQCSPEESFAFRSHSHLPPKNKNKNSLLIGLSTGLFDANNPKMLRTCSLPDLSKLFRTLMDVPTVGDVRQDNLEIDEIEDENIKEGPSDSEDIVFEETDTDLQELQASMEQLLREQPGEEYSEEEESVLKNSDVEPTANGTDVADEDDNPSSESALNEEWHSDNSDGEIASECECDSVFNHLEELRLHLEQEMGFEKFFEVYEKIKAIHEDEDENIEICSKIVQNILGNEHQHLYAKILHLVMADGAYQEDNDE

ABL1 = ABL1 (Homo sapiens, UniProt P00519)
Sequence of ABL1 (P00519 whole entry): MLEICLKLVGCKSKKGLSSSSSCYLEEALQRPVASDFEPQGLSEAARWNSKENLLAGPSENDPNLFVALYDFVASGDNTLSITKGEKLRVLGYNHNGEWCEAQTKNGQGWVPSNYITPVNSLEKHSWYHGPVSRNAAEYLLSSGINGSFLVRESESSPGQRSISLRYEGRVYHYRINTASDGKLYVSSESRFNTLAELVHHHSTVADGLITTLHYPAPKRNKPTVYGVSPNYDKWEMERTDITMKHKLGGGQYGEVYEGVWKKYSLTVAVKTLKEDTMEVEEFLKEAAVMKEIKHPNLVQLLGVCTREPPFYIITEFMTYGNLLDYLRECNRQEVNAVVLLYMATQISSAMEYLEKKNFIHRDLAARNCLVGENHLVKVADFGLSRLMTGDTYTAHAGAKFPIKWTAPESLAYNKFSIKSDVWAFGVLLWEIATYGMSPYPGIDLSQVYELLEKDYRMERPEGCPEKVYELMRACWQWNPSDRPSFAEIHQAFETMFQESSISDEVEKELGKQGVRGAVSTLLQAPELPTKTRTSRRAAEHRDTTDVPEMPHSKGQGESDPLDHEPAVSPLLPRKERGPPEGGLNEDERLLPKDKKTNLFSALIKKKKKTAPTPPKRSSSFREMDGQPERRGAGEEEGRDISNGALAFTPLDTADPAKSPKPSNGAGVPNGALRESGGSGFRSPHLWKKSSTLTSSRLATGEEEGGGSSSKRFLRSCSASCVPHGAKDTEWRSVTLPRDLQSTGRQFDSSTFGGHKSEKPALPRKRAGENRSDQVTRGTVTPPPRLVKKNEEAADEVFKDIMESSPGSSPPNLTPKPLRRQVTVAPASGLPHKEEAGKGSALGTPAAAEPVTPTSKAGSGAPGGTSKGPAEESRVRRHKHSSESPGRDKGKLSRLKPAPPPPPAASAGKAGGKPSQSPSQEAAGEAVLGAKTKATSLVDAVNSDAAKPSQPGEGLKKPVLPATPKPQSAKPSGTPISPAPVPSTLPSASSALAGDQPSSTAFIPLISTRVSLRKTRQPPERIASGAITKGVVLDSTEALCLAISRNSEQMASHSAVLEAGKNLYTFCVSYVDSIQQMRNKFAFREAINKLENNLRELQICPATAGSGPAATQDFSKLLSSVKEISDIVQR

EphB1 = molecular target: T2, EphB1 (Homo sapiens, UniProt P54762)
T2 sequence (P54762 1-984): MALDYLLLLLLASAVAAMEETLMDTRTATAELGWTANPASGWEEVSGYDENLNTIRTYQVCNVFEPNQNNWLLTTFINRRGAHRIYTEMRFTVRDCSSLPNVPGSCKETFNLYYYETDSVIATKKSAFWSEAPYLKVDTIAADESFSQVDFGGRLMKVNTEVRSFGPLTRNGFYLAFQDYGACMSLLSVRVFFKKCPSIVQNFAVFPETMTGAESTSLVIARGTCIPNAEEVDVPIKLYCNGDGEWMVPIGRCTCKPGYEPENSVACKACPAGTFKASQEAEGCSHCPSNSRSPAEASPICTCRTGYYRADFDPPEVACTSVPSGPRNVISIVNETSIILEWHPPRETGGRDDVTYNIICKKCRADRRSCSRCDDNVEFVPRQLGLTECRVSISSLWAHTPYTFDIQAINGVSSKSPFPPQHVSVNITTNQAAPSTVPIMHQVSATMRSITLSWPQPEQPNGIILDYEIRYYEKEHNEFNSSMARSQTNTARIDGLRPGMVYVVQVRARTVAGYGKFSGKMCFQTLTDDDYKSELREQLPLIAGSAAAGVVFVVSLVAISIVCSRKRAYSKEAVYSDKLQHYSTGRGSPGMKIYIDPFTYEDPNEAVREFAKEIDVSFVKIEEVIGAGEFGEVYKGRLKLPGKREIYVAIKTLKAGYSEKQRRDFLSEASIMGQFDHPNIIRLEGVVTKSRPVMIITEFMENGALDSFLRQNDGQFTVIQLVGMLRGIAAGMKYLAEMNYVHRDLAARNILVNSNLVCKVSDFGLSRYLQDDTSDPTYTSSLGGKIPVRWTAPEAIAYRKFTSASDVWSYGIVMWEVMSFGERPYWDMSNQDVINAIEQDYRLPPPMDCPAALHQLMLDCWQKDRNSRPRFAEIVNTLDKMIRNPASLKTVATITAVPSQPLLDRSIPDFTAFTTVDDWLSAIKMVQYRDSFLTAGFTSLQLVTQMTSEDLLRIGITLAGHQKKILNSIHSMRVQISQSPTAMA

MRCKa = MRCKa (Homo sapiens, UniProt Q5VT25)
Sequence of MRCKa (Q5VT25 whole entry): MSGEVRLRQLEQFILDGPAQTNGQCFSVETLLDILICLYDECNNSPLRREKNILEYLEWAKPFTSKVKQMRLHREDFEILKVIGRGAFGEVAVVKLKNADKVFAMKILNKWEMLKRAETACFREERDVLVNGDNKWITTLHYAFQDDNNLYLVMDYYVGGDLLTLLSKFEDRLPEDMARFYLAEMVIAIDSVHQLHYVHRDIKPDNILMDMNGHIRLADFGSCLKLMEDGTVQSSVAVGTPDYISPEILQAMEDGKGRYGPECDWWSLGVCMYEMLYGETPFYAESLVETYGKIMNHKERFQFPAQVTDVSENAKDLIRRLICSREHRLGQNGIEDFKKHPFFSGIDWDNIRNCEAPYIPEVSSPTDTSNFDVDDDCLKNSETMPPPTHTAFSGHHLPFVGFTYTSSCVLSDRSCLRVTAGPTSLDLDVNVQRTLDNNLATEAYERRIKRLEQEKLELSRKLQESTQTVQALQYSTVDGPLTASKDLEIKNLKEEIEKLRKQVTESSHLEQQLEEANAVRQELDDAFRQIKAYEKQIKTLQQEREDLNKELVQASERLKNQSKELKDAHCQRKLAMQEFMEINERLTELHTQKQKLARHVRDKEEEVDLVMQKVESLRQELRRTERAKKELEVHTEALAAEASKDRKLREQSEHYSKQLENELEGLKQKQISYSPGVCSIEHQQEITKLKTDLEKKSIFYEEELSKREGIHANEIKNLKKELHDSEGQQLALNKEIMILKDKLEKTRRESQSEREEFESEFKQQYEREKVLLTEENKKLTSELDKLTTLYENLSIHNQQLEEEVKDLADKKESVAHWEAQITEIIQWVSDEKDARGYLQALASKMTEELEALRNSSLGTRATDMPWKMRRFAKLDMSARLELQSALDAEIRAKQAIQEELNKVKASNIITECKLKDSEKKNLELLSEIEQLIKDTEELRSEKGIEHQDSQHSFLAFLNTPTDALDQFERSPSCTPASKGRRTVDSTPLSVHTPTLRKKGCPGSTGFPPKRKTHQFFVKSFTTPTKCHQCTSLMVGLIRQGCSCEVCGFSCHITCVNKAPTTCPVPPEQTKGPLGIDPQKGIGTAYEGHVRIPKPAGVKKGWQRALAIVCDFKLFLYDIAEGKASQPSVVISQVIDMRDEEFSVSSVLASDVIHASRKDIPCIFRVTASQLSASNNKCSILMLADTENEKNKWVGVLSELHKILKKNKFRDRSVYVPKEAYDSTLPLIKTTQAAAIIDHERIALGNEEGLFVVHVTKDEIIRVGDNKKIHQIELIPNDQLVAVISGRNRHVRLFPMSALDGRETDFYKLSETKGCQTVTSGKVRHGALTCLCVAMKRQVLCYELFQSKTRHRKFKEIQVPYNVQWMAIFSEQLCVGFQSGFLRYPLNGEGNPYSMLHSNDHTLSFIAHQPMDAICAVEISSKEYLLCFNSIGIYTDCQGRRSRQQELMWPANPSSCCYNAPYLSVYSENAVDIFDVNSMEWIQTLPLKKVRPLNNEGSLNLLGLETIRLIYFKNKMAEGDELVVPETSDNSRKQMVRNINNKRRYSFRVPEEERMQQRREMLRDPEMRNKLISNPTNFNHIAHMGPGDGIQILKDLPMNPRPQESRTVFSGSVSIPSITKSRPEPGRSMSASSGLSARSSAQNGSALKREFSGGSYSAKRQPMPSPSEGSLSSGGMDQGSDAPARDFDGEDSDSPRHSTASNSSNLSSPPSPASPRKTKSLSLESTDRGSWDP

NEK2 = molecular target: T3, NEK2 (Homo sapiens, UniProt P51955)
T3 sequence (P51955 1-445): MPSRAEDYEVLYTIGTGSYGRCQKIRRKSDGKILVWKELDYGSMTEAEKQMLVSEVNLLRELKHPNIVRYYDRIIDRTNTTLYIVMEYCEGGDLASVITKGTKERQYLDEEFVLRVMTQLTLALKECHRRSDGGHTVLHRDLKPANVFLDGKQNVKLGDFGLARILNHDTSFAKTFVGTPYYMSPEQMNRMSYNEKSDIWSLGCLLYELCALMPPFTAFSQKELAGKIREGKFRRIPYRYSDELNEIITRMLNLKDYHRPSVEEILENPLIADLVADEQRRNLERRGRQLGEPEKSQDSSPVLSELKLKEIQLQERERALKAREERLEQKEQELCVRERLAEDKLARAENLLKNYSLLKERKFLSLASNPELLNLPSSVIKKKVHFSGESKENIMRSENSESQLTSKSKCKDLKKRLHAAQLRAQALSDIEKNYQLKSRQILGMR

PAK4 = PAK4 (Homo sapiens, UniProt O96013)
Sequence of PAK4 (O96013 whole entry): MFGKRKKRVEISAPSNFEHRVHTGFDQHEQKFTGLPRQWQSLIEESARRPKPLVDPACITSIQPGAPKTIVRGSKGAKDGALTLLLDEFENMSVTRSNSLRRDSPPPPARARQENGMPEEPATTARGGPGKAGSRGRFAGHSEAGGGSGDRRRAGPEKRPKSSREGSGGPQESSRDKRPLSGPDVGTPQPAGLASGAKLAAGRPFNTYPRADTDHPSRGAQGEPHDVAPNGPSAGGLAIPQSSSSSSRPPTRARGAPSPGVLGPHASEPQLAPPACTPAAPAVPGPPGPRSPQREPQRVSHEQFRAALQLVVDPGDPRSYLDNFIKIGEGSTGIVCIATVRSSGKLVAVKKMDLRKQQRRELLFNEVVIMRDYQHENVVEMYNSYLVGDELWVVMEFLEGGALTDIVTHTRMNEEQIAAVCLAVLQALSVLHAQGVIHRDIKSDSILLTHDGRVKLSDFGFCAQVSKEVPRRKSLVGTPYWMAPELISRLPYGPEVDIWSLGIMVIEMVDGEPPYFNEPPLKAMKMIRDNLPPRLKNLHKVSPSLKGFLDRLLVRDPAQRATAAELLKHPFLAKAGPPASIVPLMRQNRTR

## CNc1ncc2cc(-c3cc(Cl)ccc3Cl)c(=O)n(CCCCN)c2n1 [compound 8, 8-(4-Aminobutyl)-6-(2,5-dichlorophenyl)-2-(methylamino)pyrido[2,3-d]pyrimidin-7(8H)-one]
NEK1; read-out: dTm 8
  ΔTm at 10 µM: 0.1 °C
ABL1; read-out: dTm 8
  ΔTm at 10 µM: 6.2 °C
EphB1; read-out: dTm 8
  ΔTm at 10 µM: 5.3 °C
MRCKa; read-out: dTm 8
  ΔTm at 10 µM: 0 °C
NEK2; read-out: dTm 8
  ΔTm at 10 µM: 1.9 °C

## CNc1ncc2cc(-c3cc(C(F)(F)F)ccc3Cl)c(=O)n(CCCCN)c2n1 [compound 9, 8-(4-Aminobutyl)-6-(2-chloro-5-(trifluoromethyl)phenyl)-2-(methylamino)pyrido[2,3-d]pyrimidin-7(8H)-one]
PAK4; read-out: dTm 9
  ΔTm at 10 µM: 0.5 °C
NEK1; read-out: dTm 9
  ΔTm at 10 µM: 0.1 °C
ABL1; read-out: dTm 9
  ΔTm at 10 µM: 2.5 °C
EphB1; read-out: dTm 9
  ΔTm at 10 µM: 3.3 °C
MRCKa; read-out: dTm 9
  ΔTm at 10 µM: -0.5 °C
NEK2; read-out: dTm 9
  ΔTm at 10 µM: 1.3 °C

## CNc1ncc2cc(-c3cc(Cl)ccc3Br)c(=O)n(CCCCN)c2n1 [compound 10, 8-(4-Aminobutyl)-6-(2-bromo-5-chlorophenyl)-2-(methylamino)pyrido[2,3-d]pyrimidin-7(8H)-one]
PAK4; read-out: dTm 10
  ΔTm at 10 µM: 1.3 °C
NEK1; read-out: dTm 10
  ΔTm at 10 µM: 0.1 °C
ABL1; read-out: dTm 10
  ΔTm at 10 µM: 6.2 °C
EphB1; read-out: dTm 10
  ΔTm at 10 µM: 5.5 °C
MRCKa; read-out: dTm 10
  ΔTm at 10 µM: -0.2 °C
NEK2; read-out: dTm 10
  ΔTm at 10 µM: 2.1 °C

## CNc1ncc2cc(-c3cc(Br)ccc3Br)c(=O)n(CCCCN)c2n1 [compound 11, 8-(4-Aminobutyl)-6-(2,5-dibromophenyl)-2-(methylamino)pyrido[2,3-d]pyrimidin-7(8H)-one]
PAK4; read-out: dTm 11
  ΔTm at 10 µM: 1.1 °C
NEK1; read-out: dTm 11
  ΔTm at 10 µM: 0.1 °C
ABL1; read-out: dTm 11
  ΔTm at 10 µM: 4.8 °C
EphB1; read-out: dTm 11
  ΔTm at 10 µM: 4.7 °C
MRCKa; read-out: dTm 11
  ΔTm at 10 µM: -0.2 °C
NEK2; read-out: dTm 11
  ΔTm at 10 µM: 1.7 °C

## CNc1ncc2cc(-c3cc(F)c(-c4cccc(C)n4)cc3F)c(=O)n(CCCCN)c2n1 [compound 12, 8-(4-Aminobutyl)-6-(2,5-difluoro-4-(6-methylpyridin-2-yl)phenyl)-2-(methylamino)pyrido[2,3-d]pyrimidin-7(8H)-one]
PAK4; read-out: dTm 12
  ΔTm at 10 µM: 1.8 °C
NEK1; read-out: dTm 12
  ΔTm at 10 µM: -0.4 °C
ABL1; read-out: dTm 12
  ΔTm at 10 µM: 3.5 °C
EphB1; read-out: dTm 12
  ΔTm at 10 µM: 3.5 °C
MRCKa; read-out: dTm 12
  ΔTm at 10 µM: -0.8 °C
NEK2; read-out: dTm 12
  ΔTm at 10 µM: 7.2 °C
